Measurements reported in PMC8311653, “Design, Synthesis, In Vitro and In Vivo Characterization of Selective NKCC1 Inhibitors for the Treatment of Core Symptoms in Down Syndrome” (Journal of Medicinal Chemistry, 2021).
Converted amounts (≈) assume the structure as drawn.

Columns and labels:
NKCC1 = target: T1, NKCC1 (Mus musculus, UniProt P55012); experiment: Ca2+ influx assay in immature primary neuronal cultures (indirect measure of NKCC1 inhibition); assay type: cell-based; conditions: cultured neurons, 3 DIV
T1 construct: primary neuronal cultures of dissociated hippocampal neurons were prepared from E18 C57BL/6J mice; endogenous in cells; host or cells: primary hippocampal neurons from E18 C57BL/6J mice, 3 DIV
T1 sequence (P55012 1-1205): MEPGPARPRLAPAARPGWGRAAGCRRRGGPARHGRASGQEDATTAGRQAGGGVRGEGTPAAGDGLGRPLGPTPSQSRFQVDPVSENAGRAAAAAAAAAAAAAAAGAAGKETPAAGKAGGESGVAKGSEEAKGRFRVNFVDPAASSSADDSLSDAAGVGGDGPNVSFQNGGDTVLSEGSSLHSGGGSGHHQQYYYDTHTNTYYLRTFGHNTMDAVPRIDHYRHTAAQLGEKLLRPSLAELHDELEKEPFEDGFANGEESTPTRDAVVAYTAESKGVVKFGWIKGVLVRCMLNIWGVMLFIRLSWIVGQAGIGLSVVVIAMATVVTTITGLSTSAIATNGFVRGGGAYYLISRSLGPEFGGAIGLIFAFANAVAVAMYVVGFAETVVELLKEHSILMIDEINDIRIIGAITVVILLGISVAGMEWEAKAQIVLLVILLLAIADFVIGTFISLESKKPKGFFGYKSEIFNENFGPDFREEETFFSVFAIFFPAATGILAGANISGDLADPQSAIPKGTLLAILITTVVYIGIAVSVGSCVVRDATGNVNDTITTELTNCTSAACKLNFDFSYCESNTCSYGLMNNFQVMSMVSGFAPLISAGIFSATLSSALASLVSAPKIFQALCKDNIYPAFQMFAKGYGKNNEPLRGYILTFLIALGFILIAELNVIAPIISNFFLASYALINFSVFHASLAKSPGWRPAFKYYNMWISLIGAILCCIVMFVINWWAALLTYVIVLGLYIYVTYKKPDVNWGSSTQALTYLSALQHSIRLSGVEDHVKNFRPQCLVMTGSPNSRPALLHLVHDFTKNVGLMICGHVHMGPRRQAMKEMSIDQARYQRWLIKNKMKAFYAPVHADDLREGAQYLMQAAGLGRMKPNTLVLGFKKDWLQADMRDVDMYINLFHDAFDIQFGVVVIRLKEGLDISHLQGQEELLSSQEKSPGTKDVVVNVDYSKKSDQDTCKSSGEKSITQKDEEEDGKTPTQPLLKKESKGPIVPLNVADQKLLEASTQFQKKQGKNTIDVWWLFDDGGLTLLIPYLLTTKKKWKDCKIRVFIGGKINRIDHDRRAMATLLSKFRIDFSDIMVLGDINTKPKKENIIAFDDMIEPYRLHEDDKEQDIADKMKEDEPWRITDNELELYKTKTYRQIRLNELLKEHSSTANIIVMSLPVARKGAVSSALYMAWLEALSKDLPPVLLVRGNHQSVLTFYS
Protocol: To perform the Ca^2+-influx assay, primary neuronal cultures of dissociated hippocampal neurons were prepared from E18 C57BL/6J mice (Charles River) as previously described[56] and plated in 96-well black-walled, clear-bottomed plates coated with poly-L-lysine (Sigma; 0.1 mg/mL in 100 mM borate buffer, pH 8.5) at a density of 30,000 cells per well. Neurons were maintained in neurobasal medium supplemented with 2% B-27 supplement, 0.5 mM glutamine, 50 U/mL of penicillin, and 50 μg/mL of streptomycin (all from Gibco). The cells were incubated at 37 °C and 5% CO2 until DIV 3 for the Ca^2+ influx assay.
At 3 DIVs, neurons were loaded with 2.5 μM of the Ca^2+-sensitive day Fluo4-AM (Invitrogen) in extracellular solution (145 mM NaCl, 5 mM KCl, 10 mM HEPES, 5.55 mM glucose, 1 mM MgCl2, and 2 mM CaCl2, pH 7.4). After 15 min, cells were washed twice with extracellular solutions and treated with bumetanide (as a positive control), DMSO (as a negative control), or each of our compounds at 10 μM or 100 μM, in extracellular solution for 15 min. Plates were then loaded onto a Spark (Tecan) multiplate reader equipped with an automatic liquid injector system, and Fluo4 fluorescence was recorded with excitation at 485 nm and emission at 535 nm. For each well, fluorescence was first recorded for 20 s of the baseline and for 20 s after delivery of GABA (100 μM). To evaluate neuronal viability, fluorescence was recorded for an additional 20 s after delivery of a depolarizing KCl stimulus (90 mM final concentration in wells). To represent the fluorescent traces in time, we normalized the fluorescence value for each time point to the average of the fluorescence value for the first 20 s of the baseline (ΔF/F0). To quantify the average effects as represented by the bar plots, we measured the maximum peak increase in ΔF/F0 fluorescence upon GABA application normalized over the maximum peak increase in ΔF/F0 fluorescence upon KCl application. We then presented in the figures all the data as a percentage of the fluorescence increase versus the value of the control DMSO.

[1] = In vitro mouse plasma stability; assay type: in vitro ADME; conditions: mouse plasma at 37 °C; incubated at 5 μM (final DMSO 0.1%); read-out: t1/2 plasma
[2] = In vitro metabolic stability in mouse liver microsomes; conditions: tissue homogenate, pH 7.4
Protocol: 1. Aqueous kinetic solubility. […]
3. In vitro mouse microsomial stability. […]
microsomes (Sekisui Xenotech, LCC), 0.1M Tris-HCl buffer (pH 7.4), and 10% DMSO. The final […]
After pre-incubation, the cofactors (NADPH, G6P, G6PDH, MgCl2 pre-dissolved in 0.1M Tris-HCl) were added to the incubation mixture and the incubation was continued at 37 °C for 1h. At each time point (0, 5, 15, 30, 60 min), 30µL of incubation mixture was diluted with 200 µL cold acetonitile spiked with 200 nM of warfarin as internal standard, followed by centrifugation at 3500 g for 30 min. The supernatant was further diluted with H2O (1:1) for analysis.
An aliquot of 200 µl of the supernatant was removed, and the concentration of the test compound was […]
quantified by LC-MS/MS. The percentage of the test compound remaining at each time point relative […]
to t=0 was calculated. The half-lives (t½) were determined by a one-phase decay equation using a […]
non-linear regression of compound concentration vs time.

[3] = Aqueous kinetic solubility in PBS pH 7.4; assay type: physicochemical; conditions: phosphate buffered saline (PBS); aqueous kinetic solubility from 10 mM DMSO solution in PBS pH 7.4; target concentration 250 μM (final DMSO 2.5%)
Protocol: 1. Aqueous kinetic solubility.
30 µL aliquots of 10 mM DMSO stock solution of the test compound were incubated in Phosphate
Buffered Saline (PBS) at pH 7.4 at 25°C for 24h. After centrifugation the dissolved compound in the
supernatant was quantified by LC-MS/MS.
Aqueous kinetic solubility was determined by UV quantification at
215 nm. […]

Compound	inhibition at 10 µM (NKCC1) [%]	inhibition at 100 µM (NKCC1; 100 μM) [%]	half-life at 5 μM [1] [h]	half-life at 5 μM [2] [h]	solubility at 24 h [3] [µM]	Inhibition 100 μM Ca2+ influx (%) (NKCC1; 100 μM)
CNS(=O)(=O)c1cc(C(=O)O)ccc1NCCCCCCCC(F)(F)F [Compound 32, 3-(-N,N-Methylsulfamoyl)-4-(8,8,8-trifluorooctylamino)benzoic Acid]	9.3 ± 1.9	40.4 ± 4.8	> 2	> 1	242 (≈ 95.9 µg/mL)	
O=C(O)c1ccc(NCCCCCCCC(F)(F)F)c(S(=O)(=O)N2CCCC2)c1 [Compound 33, 3-Pyrrolidin-1-ylsulfonyl-4-(8,8,8-trifluorooctylamino)benzoic Acid]	31.7 ± 4.1	50.9 ± 6.7	> 2	> 1	66 (≈ 28.8 µg/mL)	
O=C(O)c1ccc(NCCCCCCCC(F)(F)F)c(S(=O)(=O)N2CCCCC2)c1 [Compound 34, 3-(1-Piperidylsulfonyl)-4-(8,8,8-trifluorooctylamino)benzoic Acid]	49.2 ± 4.5		> 2	> 1	13 (≈ 5.86 µg/mL)	
O=C(O)c1ccc(NCCCCCCCC(F)(F)F)c(S(=O)(=O)N2CCOCC2)c1 [Compound 35, 3-Morpholinosulfonyl-4-(8,8,8-trifluorooctylamino)benzoic Acid]	16.5 ± 2.7	67.8 ± 2.8	> 2	> 1	244 (≈ 110 µg/mL)	67.7 ± 2.8
O=C(O)c1ccc(NCCCCCCCC(F)(F)F)c(S(=O)(=O)NC2CCCC2)c1 [Compound 36, 3-(-N-Cyclopentylsulfamoyl)-4-(8,8,8-trifluorooctylamino)benzoic Acid]	45.3 ± 5.3		> 2	> 1	223 (≈ 100 µg/mL)	
O=C(O)c1ccc(NCCCCCCCC(F)(F)F)c(S(=O)(=O)NC2CCCCC2)c1 [Compound 37, 3-(-N-Cyclohexylsulfamoyl)-4-(8,8,8-trifluorooctylamino)benzoic Acid]	49.5 ± 4.5		> 2	> 1	9 (≈ 4.18 µg/mL)	
O=C(O)c1ccc(NCCCCCCCC(F)(F)F)c(S(=O)(=O)NC2CCOCC2)c1 [Compound 38, 3-(N-(Tetrahydro-2H-pyran-4-yl)sulfamoyl)-4-((8,8,8-trifluorooctyl)amino)benzoic Acid]	7.1 ± 2.2	36.2 ± 3.4	> 2	> 1	244 (≈ 114 µg/mL)	
CN(C)S(=O)(=O)c1cc(C(=O)O)c(Cl)cc1NCCCCCCCC(F)(F)F [Compound 39, 2-Chloro-5-(N,N-dimethylsulfamoyl)-4-((8,8,8-trifluorooctyl)amino)benzoic Acid]	19.4 ± 2.8	59.6 ± 3.1	> 2	> 1	241 (≈ 107 µg/mL)	
COc1cc(NCCCCCCCC(F)(F)F)c(S(=O)(=O)N(C)C)cc1C(=O)O [Compound 41, 5-(N,N-Dimethylsulfamoyl)-2-methoxy-4-((8,8,8-trifluorooctyl)amino)benzoic Acid]	14.2 ± 2	45.7 ± 4.5	> 2	> 1	188 (≈ 82.8 µg/mL)	
CCOc1cc(NCCCCCCCC(F)(F)F)c(S(=O)(=O)N(C)C)cc1C(=O)O [Compound 42, 5-(N,N-Dimethylsulfamoyl)-2-ethoxy-4-((8,8,8-trifluorooctyl)amino)benzoic Acid]	13.4 ± 1.1	46.6 ± 3.8	> 2	> 1	43 (≈ 19.5 µg/mL)	
CN(C)S(=O)(=O)c1cc(C(=O)O)c(OC2CCCC2)cc1NCCCCCCCC(F)(F)F [Compound 43, 2-(Cyclopentyloxy)-5-(N,N-dimethylsulfamoyl)-4-((8,8,8-trifluorooctyl)amino)benzoic Acid]	27.4 ± 7		> 2	0.55	11 (≈ 5.44 µg/mL)	
